Experiments:
[1] = Heat-stability on storage at 40° C. (HPLC content of undecomposed compound); type: physicochemical; conditions: for remaining at 288 h / remaining at 360 h: solid storage; for remaining at 288 h: 12th day; for remaining at 360 h: 15th day; for Content (%) Start: start (initial content)
Description: The following compounds (200 mg each) were placed in transparent sample bottles, and left to stand at a constant temperature of 40° C. for 15 days. Thereafter, they were checked for the heat-stability by determining the change of content of the compounds which remained not decomposed as of the 12th and 15th day. The content was measured by high performance liquid chromatography using a 60:40 mixture of acetonitrile and water as an eluent, and the percentages of the content of the undecomposed compound were calculated based on the initial content.

[2] = target: esterase solution prepared from a purified microsome fraction of the liver of a rat; test: Esterase inhibiting activity (hydrolysis of methyl butyrate); type: biochemical; conditions: pH 8.0, 37° C., 60 min
Description: 1. Esterase inhibiting activity
A 10 micromole quantity of methyl butyrate in a 50% ethanol solution is added as a substrate to a specified amount of buffer solution containing 0.1 mole of trishydrochloric acid (pH 8.0). To the mixture is further added a 50% ethanol solution of the compound of the invention, immediately followed by addition of an esterase solution prepared from a purified microsome fraction of the liver of a rat (adjusted to hydrolyze 9 micromoles of methyl butyrate at 37° C. in one hour) as an enzyme solution. The mixture is reacted at 37° C. for 60 minutes.
After the reaction, alkaline hydroxylamine is added to the mixture to form a hydroxamic acid derivative of methyl butyrate, and a ferric salt is added to the derivative. The resulting red color is colorimetrically determined (at a wavelength of 540 nm) to determine the amount of remaining methyl butyrate. The esterase inhibiting ratios of the present compound at (at least three) different concentrations are plotted as ordinate, and the logarithms of the concentrations as abscissa to obtain a line, which gives the 50% inhibition concentration (IC50).

plasma triglycerides = test: Antilipemic effect (plasma triglycerides after oral olive oil); type: in vivo, male Wistar rats; conditions: Wistar rats, oral in olive oil (100 mg in 5 ml, 5 ml/kg), plasma 2 h after dosing
Description: Seven-week-old male Wistar rats weighing 200 to 220 g are used, 5 rats in each group.
The compound of the invention (100 mg) is dissolved in 5 ml of olive oil. The olive oil containing the compound is orally given to the rat with a probe at a dose of 5 ml/kg. Two hours thereafter, 6 ml of whole blood is withdrawn from the descending aorta of the rat under ether anesthesia with a syringe containing heparin. The blood is centrifuged at 5° C. and 3000 r.p.m. to obtain the plasma.
The plasma collected is used for determining the triglycerides content, using a triglycerides measuring kit (trade mark "Triglycerides-B Test Wako," product of Wako Junyaku Co., Ltd., Japan). Olive oil containing no compound is similarly given to a control group, while no treatment is conducted for a normal group. The triglycerides content in the plasma is also determined for these groups in the same manner as is the case with the test groups.
The percent hyperlipidemia inhibition achieved by the present compound is given by
Percent inhibitaion=(A-C/A-B)×100
in which A is the triglycerides content of the control group, B is the triglycerides content of the normal group, and C is the triglycerides content of the group to which the present compound is given.

chymotripsin = chymotripsin (Bos taurus, UniProt P00766); test: Chymotripsin inhibiting activity (ATEE hydrolysis); type: biochemical; conditions: 1 × 10^-4 mole; pH 8.0, 37° C., ATEE substrate
Description: 2. Chymotripsin inhibiting activity
An enzyme solution (0.1 unit of chymotripsin) is added to a specified quantity of buffer solution containing 0.1 mole of trishydrochloric acid (pH 8.0). To the mixture is further added a 50% ethanol solution of the compound of the invention, and the resulting mixture is reacted at 37° C. for 20 minutes.
On completion of the reaction, 10 micromoles of N-acetyl-L-thyrosine (ATEE) serving as a substrate is added to the mixture, and the resulting mixture is reacted at 37° C. for 30 minutes. After the completion of the reaction, the amount of remaining ATEE is determined by the same hydroxamic acid method as used in the method of determining the esterase inhibiting activity. The percent chymotripsin inhibition is given by
Percent inhibition=(A-B/A)×100
wherein A is the amount of hydrolyzed esters in the reaction system not containing the compound of the invention, and B is the amount of hydrolyzed esters in the reaction system containing the present compound.

remaining at 288 h [1] [%] | remaining at 360 h [1] [%] | Content (%) Start [1] [%] | IC50 [2] [nM] | Chymotripsin inhibition (%) (chymotripsin) | Structure (SMILES) | Antilipemic TG inhibition (%) (plasma triglycerides)
100 | 100 | 100 | – | – | CC(C)[C@H]1CC[C@](C)(C(=O)COS(=O)(=O)c2ccccc2)CC1 [Compound T-7] | –
95 | 40 | 100 | – | – | Cc1cc(C)c(S(=O)(=O)OCC(=O)C2CCC(C(C)C)CC2)c(C)c1 (stereo not shown) [Compound C-3] | –
– | – | – | 2500 | – | COc1ccc(S(=O)(=O)OCC(=O)C2CCC(C)(C)CC2)cc1 [Compound 18] | –
– | – | – | 2 | – | Cc1cc(C)c(S(=O)(=O)OCC(=O)C2CCC(C)(C)CC2)c(C)c1 [Compound 17] | –
– | – | – | 2200 | 15 | CC(C)C[C@H]1CC[C@](C)(C(=O)COS(=O)(=O)c2ccccc2)CC1 [Compound 11] | 70.5
– | – | – | 5.8 | 71 | CC1(C)CCC(C(=O)COS(=O)(=O)c2ccccc2)CC1 [Compound 16, 1-(benzenesulfonyloxy)-2-(4,4-dimethylcyclohexyl)-2-ethanone] | 77.5
– | – | – | 22 | 41 | O=C(COS(=O)(=O)c1ccccc1)C1CCC2(CCCC2)CC1 [Compound 22] | 84.2
85 | 15 | 100 | – | – | O=C(COS(=O)(=O)c1ccccc1)C1CCCCC1 [Compound C-5] | –
93 | 16 | 100 | – | – | Cc1ccc(S(=O)(=O)OCC(=O)[C@H]2CC[C@H](C(C)(C)C)CC2)cc1 [Compound C-2] | –
100 | 100 | 100 | – | – | Cc1ccc(S(=O)(=O)OCC(=O)C2(C)CCC(C(C)C)CC2)cc1 (stereo not shown) [Compound T-8] | –
– | – | – | 16 | 26 | CC(C)[C@H]1CC[C@](C)(C(=O)COS(=O)(=O)c2ccccc2)CC1 [Compound 7] | 72.0
– | – | – | 3000 | – | Cc1ccc(S(=O)(=O)OCC(=O)C2CCC3(CCCC3)CC2)cc1 [Compound 23] | –
95 | 20 | 100 | – | – | Cc1cc(C)c(S(=O)(=O)OCC(=O)C2CCCCC2)c(C)c1 [Compound C-7] | –
– | – | – | 4.2 | 34 | CCCC1(C)CCC(C(=O)COS(=O)(=O)c2ccccc2)CC1 (stereo not shown) [Compound 19] | 95.4
72 | 19 | 100 | – | – | O=C(CCC1CCCCC1)COS(=O)(=O)c1ccccc1 [Compound C-8] | –
100 | 100 | 100 | – | – | COc1ccc(S(=O)(=O)OCC(=O)C2(C)CCC(CC(C)C)CC2)cc1 (stereo not shown) [Compound T-13] | –
91 | 15 | 100 | – | – | CCOc1ccc(S(=O)(=O)OCC(=O)C2CCC(CC)CC2)cc1 (stereo not shown) [Compound C-4] | –
– | – | – | 5.4 | 61 | O=C(COS(=O)(=O)c1ccccc1)C1CCC2(CCCCC2)CC1 [Compound 24] | 93.5
– | – | – | 35000 | 12 | CC[C@H]1CC[C@@](CC)(C(=O)COS(=O)(=O)c2ccccc2)CC1 [Compound 1] | –
– | – | – | 340 | 25 | CC[C@H]1CC[C@](CC)(C(=O)COS(=O)(=O)c2ccccc2)CC1 [Compound 3] | 47.1
100 | 100 | 100 | – | – | Cc1cc(C)c(S(=O)(=O)OCC(=O)C2(C)CCC(C(C)C)CC2)c(C)c1 (stereo not shown) [Compound T-6] | –
– | – | – | 560 | 35 | Cc1ccc(S(=O)(=O)OCC(=O)C2(C)CCC(C(C)C)CC2)cc1 (stereo not shown) [Compound 8] | –
80 | 14 | 100 | – | – | CCOc1ccc(S(=O)(=O)OCC(=O)C2CCCCC2)cc1 [Compound C-6] | –
92 | 14 | 100 | – | – | CC(C)[C@H]1CC[C@H](C(=O)COS(=O)(=O)c2ccccc2)CC1 [Compound C-1] | –
– | – | – | 33000 | 14 | CC(C)[C@H]1CC[C@@](C)(C(=O)COS(=O)(=O)c2ccccc2)CC1 [Compound 5] | 49.0

From US4675428A, “Sulfonic acid ester derivatives useful as antilipemic agents” (Taiho Pharmaceutical Company, Limited, priority 1982, dated 1987)
